In patent publication US20190315711A1 (eXIthera Pharmaceuticals, Inc., priority 2016, published 2019):

Assays:
[1] = target: T1, Trypsin (Bos taurus, UniProt P00760); experiment: Dose response assay for protease inhibitors: trypsin; type: biochemical; settings: ratio versus Factor XIa
T1 construct: gene PRSS1
T1 sequence (P00760 24-246): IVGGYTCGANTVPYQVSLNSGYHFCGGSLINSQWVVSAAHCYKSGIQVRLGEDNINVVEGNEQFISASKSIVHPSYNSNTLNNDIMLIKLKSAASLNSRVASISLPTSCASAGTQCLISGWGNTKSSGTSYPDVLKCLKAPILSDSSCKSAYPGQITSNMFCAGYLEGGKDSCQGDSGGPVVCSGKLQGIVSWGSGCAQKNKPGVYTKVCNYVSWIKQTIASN

[2] = Caco-2 cell permeability assay (A-B and B-A); type: in vitro ADME; settings: human; for Papp A→B at 60 min, 10 μM: A-B direction; for Papp B→A at 40 min, 10 μM: B-A direction
How it was run: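 Caco-2 monolayers were used 21-25 days post-seeding, with compound at 10 μM (1% DMSO) in HBSS-MES pH 6.5 or HBSS-HEPES pH 7.4 on the donor side. Incubation was at 37° C with shaking for 60 min (A−B) or 40 min (B−A). Donor and receiver samples were quantified by HPLC-MS/MS, and Papp and recovery were calculated.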

[3] = target: human Factor XIa (Homo sapiens, UniProt P03951); experiment: Factor XIa enzyme inhibition assay (dose response, fluorogenic AMC substrate); type: biochemical; set-up: Enzyme: Factor XIa; settings: purified enzyme; substrate 50 μM, enzyme 0.25 nM; read-out: hFXIa IC50
How it was run: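 Fluorogenic assay in 20 mM Hepes pH 7.4, 150 mM NaCl, 0.02% Tween 20 with 0.25 nM enzyme and 50 μM Glp-Pro-Arg-AMC (final). Fluorescence read every minute for 30 min at 30 °C after serial two-fold compound dilution; IC50 from four-parameter Hill fit of dose-response curves.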

human Factor XIa, sequence (P03951 388-625 limits assumed): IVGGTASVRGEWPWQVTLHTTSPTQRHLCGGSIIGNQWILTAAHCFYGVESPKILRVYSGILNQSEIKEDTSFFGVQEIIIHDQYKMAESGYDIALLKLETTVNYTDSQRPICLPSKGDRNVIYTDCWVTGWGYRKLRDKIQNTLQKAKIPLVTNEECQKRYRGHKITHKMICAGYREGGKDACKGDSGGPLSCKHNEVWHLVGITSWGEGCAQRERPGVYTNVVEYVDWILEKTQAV
human Factor XIa, sequence (P03951 19-387 partner limits assumed): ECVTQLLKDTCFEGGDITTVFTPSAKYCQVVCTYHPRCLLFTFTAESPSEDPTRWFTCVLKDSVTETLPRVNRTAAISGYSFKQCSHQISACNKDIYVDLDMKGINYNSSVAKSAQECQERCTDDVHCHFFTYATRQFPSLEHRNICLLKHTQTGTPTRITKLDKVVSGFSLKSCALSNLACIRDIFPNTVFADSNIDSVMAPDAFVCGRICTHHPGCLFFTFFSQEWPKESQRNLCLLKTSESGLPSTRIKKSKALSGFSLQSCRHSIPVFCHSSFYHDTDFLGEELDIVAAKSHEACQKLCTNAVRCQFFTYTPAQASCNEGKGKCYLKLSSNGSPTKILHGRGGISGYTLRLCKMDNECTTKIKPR

Row | SMILES | Ratio: Trypsin/FXIa [1] | Papp A→B at 60 min, 10 μM [2] [×10⁻⁶ cm/s] | Papp B→A at 40 min, 10 μM [2] [×10⁻⁶ cm/s] | IC50 [3] [nM]
1 | CC[C@H](NC(=O)N1C(=O)[C@H](Cc2ccnc(N)c2)[C@H]1C(=O)N(C)c1ccncc1)c1ccccc1C [Compound 97] | G (“G” indicates 1-100) | ≤ 10 | 31 to 50 | < 10
2 | CC[C@@H](NC(=O)N1C(=O)[C@H](Cc2ccnc(N)c2)[C@H]1C(=O)N(C)c1ncncn1)c1ccccc1 [Compound 83] | H (“H” indicates 101-1000) | ≤ 10 | > 50 | < 10

Results, then the molecule that gave them:

Row | Ratio: Trypsin/FXIa [1] | Papp A→B at 60 min, 10 μM [2] [×10⁻⁶ cm/s] | Papp B→A at 40 min, 10 μM [2] [×10⁻⁶ cm/s] | IC50 [3] [nM] | SMILES
3 | G (“G” indicates 1-100) | ≤ 10 | ≤ 10 | < 10 | CC[C@@H](NC(=O)N1C(=O)[C@H](Cc2ccnc(N)c2)[C@H]1C(=O)N(C)c1ccncc1)c1cccnc1 [Compound 59]
4 | G (“G” indicates 1-100) | ≤ 10 | 31 to 50 | < 10 | CC[C@@H](NC(=O)N1C(=O)[C@H](Cc2ccnc(N)c2)[C@H]1C(=O)N(C)c1ccncc1)c1ccc(Cl)cc1 [Compound 89]
5 | G (“G” indicates 1-100) | 11 to 30 | ≤ 10 | 10 to 100 | CCN(C(=O)[C@@H]1[C@@H](Cc2ccnc(N)c2)C(=O)N1C(=O)N[C@@H](C1CCCCC1)C(F)(F)F)c1ccccc1 [Compound 24]
